Measured values from paper PMC8869984, “Multifunctional Silver(I) Complexes with Metronidazole Drug Reveal Antimicrobial Properties and Antitumor Activity against Human Hepatoma and Colorectal Adenocarcinoma Cells” (Cancers, 2022).

Experiments:
[1] = light stability in normal daylight, visual assessment; format: physicochemical; settings: for time to complete darkening: on both groundworks (paper, tissue paper)
Balb/c 3T3 cells [2] = assay: cytotoxicity, MTT, NRU, TPC and LDH assays taken together, 72 h; format: cell-based, murine; settings: non-cancer Balb/c 3T3 cells, range over MTT, TPC, LDH
Procedure: The human hepatoma (HepG2) and colorectal adenocarcinoma (Caco-2) cells were purchased from the American Type Culture Collection: ATCC HB-8065 and ATCC HTB-37, respectively. These cells were cultured in Minimum Essential Medium Eagle (MEME) (ATCC). The murine fibroblasts cell line (Balb/c 3T3 clone A31) (gift from the Department of Swine Diseases of the National Veterinary Research Institute in Pulawy) was cultured in Dulbecco’s Modified Eagle Medium (DMEM) (ATCC). The media were supplemented with 10% BCS (Balb/c 3T3), 10% FBS (HepG2), 20% FBS (Caco-2), 1% L-glutamine, 1% antibiotic solution. […] Cytotoxicity was assessed after 72 h of exposure of the cells to compounds. […]
The metabolic activity of living cells was assessed by the measurement of the activity of dehydrogenases. […] The plate was shaken for 15 min at room temperature and transferred to a microplate reader Synergy HTX multi-mode reader (BioTek® Instruments Inc., Winooski, VT, USA) to measure the absorbance at 570 nm, using a blank as a reference. Cytotoxicity was expressed as a percentage of the negative control.
This method is based on staining living cells with neutral red, which readily diffuses through the plasma membrane and accumulates in lysosomes. […] Cytotoxicity was expressed as a percentage of the negative control. […]

P. mirabilis ATCC 12453 = assay: micro-dilution broth method (MIC, MBC); format: cell-based, Proteus mirabilis
Caco-2 cells [3] = assay: TPC assay (total protein content), 72 h exposure; format: cell-based, human; settings: Caco-2, TPC
Caco-2 cells [4] = assay: MTT assay (mitochondrial activity), 72 h exposure; format: cell-based, human; settings: Caco-2, MTT
Balb/c 3T3 cells [5] = assay: TPC assay (total protein content), 72 h exposure; format: cell-based, murine
Procedure: (§1) The human hepatoma (HepG2) and colorectal adenocarcinoma (Caco-2) cells were purchased from the American Type Culture Collection: ATCC HB-8065 and ATCC HTB-37, respectively. These cells were cultured in Minimum Essential Medium Eagle (MEME) (ATCC). The murine fibroblasts cell line (Balb/c 3T3 clone A31) (gift from the Department of Swine Diseases of the National Veterinary Research Institute in Pulawy) was cultured in Dulbecco’s Modified Eagle Medium (DMEM) (ATCC). The media were supplemented with 10% BCS (Balb/c 3T3), 10% FBS (HepG2), 20% FBS (Caco-2), 1% L-glutamine, 1% antibiotic solution. The cells were maintained in 75 cm^2 cell culture flasks (NUNC) in a humidified incubator at 37 °C in an atmosphere of 5% CO2. The medium was refreshed every two or three days, and the cells were trypsinized by 0.25% trypsin–0.02% EDTA after reaching 70–80% confluence. Single cell suspensions were prepared and adjusted to a density of 2 × 10^5 cell/mL^−1 (HepG2), 1 × 10^5 cell/mL^−1 (Caco-2) and 5 × 10^4 cell/mL^−1 (Balb/c 3T3). The cell suspension was transferred to 96-well plates (100 µL/well) and incubated for 24 h before the exposure to the studied compounds. Stock solutions of ligands and metal complexes were prepared in sterile water and diluted with culture medium to obtain a concentration range from 0.1 to 10 µM. The final concentration of sterile water was 0.1% in the medium. […] As a negative control, cultured cells were grown in the absence of studied compounds. Each concentration was tested in six replicates in three independent experiments. Cytotoxicity was assessed after 72 h of exposure of the cells to compounds. The medium was not changed during the incubation time.
This assay is based upon staining the total cellular protein (proliferation). […] The absorbance was measured at 595 nm in a microplate reader Synergy HTX multi-mode reader (BioTek® Instruments Inc., Winooski, VT, USA) using a blank as a reference. Cytotoxicity was expressed as a percentage of the negative control. […]

HepG2 cells = assay: LDH leakage assay (membrane integrity), 72 h exposure; format: cell-based, human
Procedure: as §1
The integrity of the plasma membrane was assessed through the test of lactate dehydrogenase (LDH) release, which was monitored using the commercially available Cytotoxicity Detection Kit (LDH) (Roche Diagnostics, Warsaw, Poland). […] The absorbance was measured at 492 nm in a microplate reader Synergy HTX multi-mode reader (BioTek® Instruments Inc., Winooski, VT, USA) using a blank as a reference. […]

Caco-2 cells [6] = assay: NRU assay (lysosomal activity), 72 h exposure; format: cell-based, human; settings: Caco-2, NRU
S. aureus biofilm = assay: qualitative antibiofilm activity, confocal laser scanning microscope (CLSM); settings: 500 mg/L, 24 h exposure
[7] = system: reference aerobic and anaerobic microorganisms (ATCC); assay: micro-dilution broth method, whole panel of reference strains; format: cell-based; settings: against the majority of tested bacterial strains
solubility in water = format: physicochemical; settings: qualitative statement
[8] = 1.25 µmol applied on tissue paper
[9] = P. mirabilis ATCC 12453, value in brackets

Structure (SMILES) | time of exposure after which darkening began ([1]; 1.25 µmol applied on paper) | time of exposure after which darkening began [1, 8] | time to complete darkening [1] | MBC (P. mirabilis ATCC 12453; P. mirabilis ATCC 12453) | MIC (P. mirabilis ATCC 12453; P. mirabilis ATCC 12453) | MBC (P. mirabilis ATCC 12453; [9]) | MIC (P. mirabilis ATCC 12453; [9]) | also measured
O=S(=O)([O-])[O-].[Ag+].[Ag+] [Ag2SO4, silver sulfate] | 10 min | 30 min | 24 h | 31.3 mg/L | 31.3 mg/L | 0.1 µM/mL | 0.1 µM/mL | IC50 (Balb/c 3T3 cells [2]): 1.92 to 2.57 µM
O=[N+]([O-])[O-].[Ag+] [AgNO3, Silver nitrate] | 10 min | 30 min | 24 h | 15.6 mg/L | 7.8 mg/L | 0.09 µM/mL | 0.049 µM/mL | 
Cc1ncc([N+](=O)[O-])n1CCO [MTZ, 2-Methyl-5-nitroimidazole-1-ethanol] |  |  |  |  |  |  |  | IC50 (Caco-2 cells [3]; Homo sapiens, mean ± SD, n = 3): > 10 µM; IC50 (Caco-2 cells [4]; Homo sapiens, mean ± SD, n = 3): > 10 µM; IC50 (Balb/c 3T3 cells [5]; Mus musculus, BALB/c3T3, Balb/c 3T3, TPC, mean ± SD, n = 3): > 10 µM; IC50 (HepG2 cells; Homo sapiens, mean ± SD, n = 3): > 10 µM; IC50 (Caco-2 cells [6]; Homo sapiens, mean ± SD, n = 3): > 10 µM
Cc1ncc([N+](=O)[O-])n1CCO.Cc1ncc([N+](=O)[O-])n1CCO.Cc1ncc([N+](=O)[O-])n1CCO.Cc1ncc([N+](=O)[O-])n1CCO.O=S(=O)([O-])[O-].[Ag+].[Ag+] [[Ag(MTZ)2]2SO4] |  |  |  |  |  |  |  | lowest concentration with decreased total protein content (Caco-2 cells [3]; Figure 6): 5.0 µM; lowest concentration with inhibition of mitochondrial activity (Caco-2 cells [4]; Figure 6): 1.0 µM; lowest concentration with significant (p ≤ 0.05) effect (Balb/c 3T3 cells [5]; Balb/c 3T3, TPC, Figure 6): 5.0 µM; effect on biofilm (CLSM, qualitative) (S. aureus biofilm): significantly reduced biofilm density; lowest concentration with significant (p ≤ 0.05) effect (HepG2 cells; Figure 6): 5.0 µM; minimal inhibition concentration (MIC), range [7]: 0.24 to 250 µg/mL; solubility in water (solubility in water): more soluble in water in comparison to Ag2SO4; lowest concentration with inhibition of lysosomal activity (Caco-2 cells [6]; Figure 6): 1.0 µM
